Assay results taken from US20250091989A1, “SMALL MOLECULE PROTEIN SYNTHESIS MODULATORS” (Interdict Bio, Inc., priority 2023, published 2025).

Tests used:
Format in all cases: biochemical
Details in all cases: HeLa S3 lysate, sfGFP/mCherry ratio, 2 hrs at 30° C.
MYC = test: In vitro transcription-translation (IVTT) reporter assay, MYC test sequence
Description: (§1) All reporter constructs have been cloned into the pT7CFE1-CHis plasmid (ThermoFisher #88860) using Gibson assembly procedures (NEB #E2611L). The parental pT7CFE1-CHis plasmid contains an EMCV IRES at the 5′UTR for translation initiation, a multiple-cloning site (MCS) for gene insertion, an optional C-terminal His-epitope tag, and polyA sequence in the 3′UTR to regulate mRNA stability. All reporters are designed to be inserted at the MCS to include a red fluorescent protein (mCherry), P2A self-cleaving peptide which releases the preceding mCherry protein product, and a fusion open reading frame containing a 3×FLAG epitope, a peptide sequence of interest (TEST), and green fluorescent protein (sfGFP).
(§2) Construct Plasmid Preparation: All plasmids are isolated from MACH1 cells (ThermoFisher) grown overnight in ampicillin-containing luria broth, and purified using ZymoPure Express Plasmid Midiprep Kit (Zymo Research). Constructs are sequenced verified and diluted to a working concentration of 110 ng/μL.
(§3) HeLa S3 Lysate Preparation: HeLa S3 cell pellets are acquired from Ipracell/Ipratech (Belgium) and shipped as 4 mL frozen cell pellets on dry ice for storage at −80° C. until use. The procedure for lysate preparation is as follows. Prepare 1× Lysis Buffer, cold and stored on ice:
(§4) Each preparation takes 8 cell pellets (4 ml packed volume each, approximately 1.0×10^9 cells per pellet). Thaw cell pellets from −80° C. on ice for 90 mins. Lay pellets horizontally on top of the ice and rotate every 30 mins to ensure even thawing. Once thawed, add 4 mL of cold lysis buffer to each pellet, and using a serological pipet, gently pipet up and down to break up clumps. Incubate resuspended cells in ice for an additional 30 mins (plunged into ice). During 30 min incubation, rinse and RNase-zap (Ambion) glass dounces (use loose pestle “A”), gently dry and place on ice until needed. Prepare RNase-free Eppendorf tubes for spinning and for batch storage. Add batch labels to 1.5-1.7 mL RNase-free microcentrifuge tubes (labeling scheme below). Each batch will have an extra 1.5-1.7 mL RNase-free microcentrifuge tube for 40 μL of lysate, label the top of this tube (labeling scheme below). After 30 min incubation, transfer all 8 mL of cell pellet to dounce. Cell lysis is complete after douncing 100 times. Aliquot cell lysis into 1.5-1.7 mL temporary-microcentrifuge tubes. Place tubes in centrifuge with “fins” out, and spin at 1,200 xg for 5 mins. After the first spin use a 1 mL pipet to resuspend each tube and repeat spin. This acts as an additional lysis step, is more vigorous and increases lysate yield. During second spin get liquid N2 and a fresh conical tube on ice.
(§5) After spin is complete, transfer supernatant (lysate) from microcentrifuge tubes into the 50 mL conical tube and keep on ice. Repeat steps 10-14 for all other cell pellets until completed. Once all cell lysate has been transferred to the 50 mL conical tube pipet to mix so the solution is homogenous. Transfer 1 mL of lysate into batch-labeled microcentrifuge tubes and flash freeze in liquid nitrogen. Be sure to pipet up and down to mix throughout transfer step. Place all tubes in the […] for long-term storage.
(§6) In vitro transcription-translation assay setup: Each assay includes a master mix containing lysate and shared components, a 96-well plate containing compound titrations for testing, a 96-well DNA plate with reporter constructs to be tested, 96-well skirted PCR plates, and 96-well flat-bottom, black, fluorescent assay plates. […]

ALK = test: In vitro transcription-translation (IVTT) reporter assay, ALK test sequence
Description: as §1, §2, §3, §4, §5, §6

KRAS G12D = test: In vitro transcription-translation (IVTT) reporter assay, KRAS G12D test sequence
Description: as §1, §2, §3, §4, §5, §6

SMILES	IC50 (MYC) [µM]	IC50 (ALK) [µM]	IC50 (KRAS G12D) [µM]
COc1ccc(C[C@H]2NC[C@H](O)[C@H]2OC(=O)CC[C@H]2CNCCN2)cc1 [V041828, (2R,3S,4S)-4-hydroxy-2-[(4-methoxyphenyl)methyl]pyrrolidin-3-yl 3-[(2S)-piperazin-2-yl]propanoate]	> 30	> 30	–
COc1ccc(C[C@H]2NC[C@H](O)[C@H]2OC(=O)Cc2ccc(CC(C)C)cc2)cc1 [V187182, (2R,3S,4S)-4-hydroxy-2-[(4-methoxyphenyl)methyl]pyrrolidin-3-yl 2-[4-(2-methylpropyl)phenyl]acetate; trifluoroacetic acid]	> 30	10 to 20	–
CCCC(CCC)C(=O)O[C@@H]1[C@@H](O)CN[C@@H]1Cc1ccc(OC)cc1 [V186780]	–	–	> 30
O=C(CC[C@@H]1CCCN1)O[C@@H]1[C@@H](O)CN[C@@H]1Cc1ccc(-c2cncs2)cc1 [V192842, (2R,3S,4S)-4-hydroxy-2-{[4-(1,3-thiazol-5-yl)phenyl]methyl}pyrrolidin-3-yl 3-[(2S)-pyrrolidin-2-yl]propanoate]	< 10	–	–
COc1ccc(C[C@H]2NC[C@H](O)[C@H]2OC(=O)[C@@H]2CN(Cc3ccccc3)CC23CNC3)cc1 [V186717, (2R,3S,4S)-4-hydroxy-2-[(4-methoxyphenyl)methyl]pyrrolidin-3-yl (8S)-6-benzyl-2,6-diazaspiro[3.4]octane-8-carboxylate]	> 30	> 30	–
O=C(C[C@@H]1CCNC1)O[C@@H]1[C@@H](O)CN[C@@H]1Cc1ccc(C(F)F)cc1 [V193046, (2R,3S,4S)-2-{[4-(difluoromethyl)phenyl]methyl}-4-hydroxypyrrolidin-3-yl 2-[(3S)-pyrrolidin-3-yl]acetate]	< 10	–	–
O=C(Cc1cccc(F)c1)O[C@@H]1[C@@H](O)CN[C@@H]1Cc1ccc(-c2cnco2)cc1 [V192843, (2R,3S,4S)-4-hydroxy-2-{[4-(1,3-oxazol-5-yl)phenyl]methyl}pyrrolidin-3-yl 2-(3-fluorophenyl)acetate]	< 10	–	–
COc1ccc(C[C@H]2NC[C@H](O)[C@H]2OC(=O)Cc2ccc(N3CCOCC3)cc2)cc1 [V187134, (2R,3S,4S)-4-hydroxy-2-[(4-methoxyphenyl)methyl]pyrrolidin-3-yl 2-[4-(morpholin-4-yl)phenyl]acetate]	< 10	< 10	–
COc1ccc(C[C@H]2NC[C@H](O)[C@H]2OC(=O)CCn2ccc(=O)[nH]c2=O)cc1 [V186992, (2R,3S,4S)-4-hydroxy-2-[(4-methoxyphenyl)methyl]pyrrolidin-3-yl 3-(2,4-dioxo-3H-pyrimidin-1-yl)propanoate]	< 10	< 10	–
CC(=O)O[C@@H]1[C@@H](O)CN[C@@H]1Cc1ccc(-c2cnco2)cc1 [V192987, (2R,3S,4S)-4-hydroxy-2-{[4-(1,3-oxazol-5-yl)phenyl]methyl}pyrrolidin-3-yl acetate]	< 10	–	–
CC(=O)O[C@@H]1[C@@H](O)CN[C@@H]1Cc1ccc(OC(F)(F)F)cc1 [V187185, (2R,3S,4S)-4-hydroxy-2-{[4-(trifluoromethoxy)phenyl]methyl}pyrrolidin-3-yl acetate]	< 10	–	–
COc1ccc(C[C@H]2NC[C@H](O)[C@H]2OC(=O)Cc2nccs2)cc1 [V187052, (2R,3S,4S)-4-hydroxy-2-[(4-methoxyphenyl)methyl]pyrrolidin-3-yl 2-(1,3-thiazol-2-yl)acetate; trifluoroacetic acid]	< 10	< 10	–

The remaining lines, values ahead:

IC50 (MYC) [µM]	IC50 (ALK) [µM]	IC50 (KRAS G12D) [µM]	SMILES
> 30	> 30	–	COc1ccc(C[C@H]2NC[C@H](O)[C@H]2OC(=O)CC[C@H]2CN(C)CCN2C)cc1 [V186854, (2R,3S,4S)-4-hydroxy-2-[(4-methoxyphenyl)methyl]pyrrolidin-3-yl 3-[(2S)-1,4-dimethylpiperazin-2-yl]propanoate; trifluoroacetic acid]
< 10	< 10	–	COc1ccc(C[C@H]2NC[C@H](O)[C@H]2OC(=O)CCc2cn(C)cn2)cc1 [V187096, (2R,3S,4S)-4-hydroxy-2-[(4-methoxyphenyl)methyl]pyrrolidin-3-yl 3-(1-methylimidazol-4-yl)propanoate; trifluoroacetic acid]
20 to 30	< 10	–	COc1ccc(C[C@H]2NC[C@H](O)[C@H]2OC(=O)Cn2cnnc2)cc1 [V187181, (2R,3S,4S)-4-hydroxy-2-[(4-methoxyphenyl)methyl]pyrrolidin-3-yl 2-(1,2,4-triazol-4-yl)acetate]
< 10	–	–	O=C(C[C@@H]1CCNC1)O[C@@H]1[C@@H](O)CN[C@@H]1Cc1ccc(-c2cnco2)cc1 [V193047, (2R,3S,4S)-4-hydroxy-2-{[4-(1,3-oxazol-5-yl)phenyl]methyl}pyrrolidin-3-yl 2-[(3S)-pyrrolidin-3-yl]acetate]
< 10	< 10	–	COc1ccc(C[C@H]2NC[C@H](O)[C@H]2OC(=O)CCc2ccccc2)cc1 [V187069, (2R,3S,4S)-4-hydroxy-2-[(4-methoxyphenyl)methyl]pyrrolidin-3-yl 3-phenylpropanoate]
< 10	< 10	–	CC(=O)O[C@@H]1[C@@H](O)CN[C@@H]1Cc1ccc(-c2nn[nH]n2)cc1 [V187008, (2R,3S,4S)-4-hydroxy-2-{[4-(2H−1,2,3,4-tetrazol-5-yl)phenyl]methyl}pyrrolidin-3-yl acetate; trifluoroacetic acid]
< 10	< 10	–	COc1ccc(C[C@H]2NC[C@H](O)[C@H]2OC(=O)Cc2cccs2)cc1 [V187050, (2R,3S,4S)-4-hydroxy-2-[(4-methoxyphenyl)methyl]pyrrolidin-3-yl 2-(thiophen-2-yl)acetate]
> 30	> 30	–	COc1ccc(C[C@H]2NC[C@H](O)[C@H]2OC(=O)c2ccc(F)c(S(=O)(=O)N(C)C)c2)cc1 [V000196, (2R,3S,4S)-4-hydroxy-2-[(4-methoxyphenyl)methyl]pyrrolidin-3-yl 3-(dimethylsulfamoyl)-4-fluorobenzoate]
< 10	–	–	O=C(Cc1cccc(F)c1)O[C@@H]1[C@@H](O)CN[C@@H]1Cc1ccc(-c2cncs2)cc1 [V192844, (2R,3S,4S)-4-hydroxy-2-{[4-(1,3-thiazol-5-yl)phenyl]methyl}pyrrolidin-3-yl 2-(3-fluorophenyl)acetate]
< 10	–	–	O=C(CC1CC(F)(F)C1)O[C@@H]1[C@@H](O)CN[C@@H]1Cc1ccc(-c2cnco2)cc1 [V192387, (2R,3S,4S)-4-hydroxy-2-{[4-(1,3-oxazol-5-yl)phenyl]methyl}pyrrolidin-3-yl 2-(3,3-difluorocyclobutyl)acetate]
< 10	–	–	O=C(CC1CC(F)(F)C1)O[C@@H]1[C@@H](O)CN[C@@H]1Cc1ccc(-c2cncs2)cc1 [V192840, (2R,3S,4S)-4-hydroxy-2-{[4-(1,3-thiazol-5-yl)phenyl]methyl}pyrrolidin-3-yl 2-(3,3-difluorocyclobutyl)acetate]
> 30	20 to 30	–	COc1ccc(C[C@H]2NC[C@H](O)[C@H]2OC(=O)[C@H]2CC[C@@H](O)CC2)cc1 [V186823, (2R,3S,4S)-4-hydroxy-2-[(4-methoxyphenyl)methyl]pyrrolidin-3-yl (1 s,4 s)-4-hydroxy cyclohexane-1-carboxylate]
> 30	> 30	–	COc1ccc(C[C@H]2NC[C@H](O)[C@H]2OC(=O)C2(N)CCCC2)cc1 [V186782, (2R,3S,4S)-4-hydroxy-2-[(4-methoxyphenyl)methyl]pyrrolidin-3-yl 1-aminocyclopentane-1-carboxylate]
< 10	–	–	O=C(CC[C@@H]1CCCN1)O[C@@H]1[C@@H](O)CN[C@@H]1Cc1ccc(-c2cnco2)cc1 [V192841]
< 10	–	–	COc1ccc(C[C@H]2NC[C@H](O)[C@H]2OC(=O)CC[C@@H]2CCCN2)cc1 [V192931, (2R,3S,4S)-4-hydroxy-2-[(4-methoxyphenyl)methyl]pyrrolidin-3-yl 3-[(2S)-pyrrolidin-2-yl]propanoate]
